Experimental data taken from ChEMBL document CHEMBL1201861, “Genomics of Drug Sensitity in Cancer screening data, Wellcome Trust Sanger Institute”.

Experiments:
Test in all cases: cells
GCIY = format: functional, cell-based, Homo sapiens; details: Homo sapiens, GCIY;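 note: growth inhibition of the human GCIY cell line, read out by a cell viability assay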
Description: SANGER: Inhibition of human GCIY cell growth in a cell viability assay.

DMS-114 = format: functional, cell-based, Homo sapiens; details: Homo sapiens, DMS-114
CW-2 = format: functional, cell-based, Homo sapiens; details: Homo sapiens, CW-2;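 note: growth inhibition of CW-2 cells, read out by a cell viability assay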
Description: SANGER: Inhibition of human CW-2 cell growth in a cell viability assay.

DU-4475 = format: functional, cell-based, Homo sapiens; details: Homo sapiens, DU-4475
Description: SANGER: Inhibition of human DU-4475 cell growth in a cell viability assay.

L-428 = format: functional, cell-based, Homo sapiens; details: Homo sapiens, L-428
Description: SANGER: Inhibition of human L-428 cell growth in a cell viability assay.

KNS-42 = format: functional, cell-based; details: Homo sapiens;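 note: growth inhibition of KNS-42 cells, read out with a cell viability assay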
Description: SANGER: Inhibition of human KNS-42 cell growth in a cell viability assay.

EW-3 = format: functional, cell-based, Homo sapiens; details: Homo sapiens, EW-3;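 note: cell viability assay read-out, IC50 reflects inhibition of growth of the EW-3 cells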
Description: SANGER: Inhibition of human EW-3 cell growth in a cell viability assay.

BE-13 = format: functional, cell-based, Homo sapiens; details: Homo sapiens, BE-13;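 note: growth inhibition of human BE-13 cells, measured with a cell viability assay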
Description: SANGER: Inhibition of human BE-13 cell growth in a cell viability assay.

NEC8 = format: functional, cell-based, Homo sapiens; details: Homo sapiens, NEC8;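 note: growth inhibition of human NEC8 cells, read out by a cell viability assay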
Description: SANGER: Inhibition of human NEC8 cell growth in a cell viability assay.

DOHH-2 = format: functional, cell-based, Homo sapiens; details: Homo sapiens, DOHH-2;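 note: growth inhibition of human DOHH-2 cells, read out with a cell viability assay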
Description: SANGER: Inhibition of human DOHH-2 cell growth in a cell viability assay.

K5 = format: functional, cell-based, Homo sapiens; details: Homo sapiens, K5
Description: SANGER: Inhibition of human K5 cell growth in a cell viability assay.

A388 = format: functional, cell-based; details: Homo sapiens;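 note: growth inhibition of human A388 cells, read out with a cell viability assay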
Description: SANGER: Inhibition of human A388 cell growth in a cell viability assay.

A253 cell line = format: functional, cell-based, Homo sapiens; details: Homo sapiens, A253;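 note: growth inhibition of A253 cells, read out with a cell viability assay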
Description: SANGER: Inhibition of human A253 cell growth in a cell viability assay.

U-87 MG = format: functional, cell-based, Homo sapiens, U-87MG ATCC; details: Homo sapiens, U-87 MG;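 note: growth inhibition of the cells measured with a viability assay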
Description: SANGER: Inhibition of human U-87-MG cell growth in a cell viability assay.

TGBC24TKB = format: functional, cell-based; details: Homo sapiens;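 note: growth inhibition of human TGBC24TKB cells, read out with a cell viability assay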
Description: SANGER: Inhibition of human TGBC24TKB cell growth in a cell viability assay.

BB65-RCC = format: functional, cell-based, Homo sapiens; details: Homo sapiens, BB65-RCC;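 note: growth inhibition of the cell line, measured with a cell viability assay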
Description: SANGER: Inhibition of human BB65-RCC cell growth in a cell viability assay.

SNU-5 = format: functional, cell-based, Homo sapiens; details: Homo sapiens, SNU-5;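 note: cell viability readout used to measure growth inhibition in human NCI-SNU-5 cells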
Description: SANGER: Inhibition of human NCI-SNU-5 cell growth in a cell viability assay.

TE-10 = format: functional, cell-based, Homo sapiens; details: Homo sapiens, TE-10;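 note: growth inhibition of TE-10 cells, measured by a cell viability assay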
Description: SANGER: Inhibition of human TE-10 cell growth in a cell viability assay.

NCI-H1355 = format: functional, cell-based, Homo sapiens; details: Homo sapiens, NCI-H1355;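 note: growth inhibition of human NCI-H1355 cells, read out by a cell viability assay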
Description: SANGER: Inhibition of human NCI-H1355 cell growth in a cell viability assay.

MSTO-211H = format: functional, cell-based, Homo sapiens; details: Homo sapiens, MSTO-211H
Description: SANGER: Inhibition of human MSTO-211H cell growth in a cell viability assay.

NB69 = format: functional, cell-based, Homo sapiens; details: Homo sapiens, NB69;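 note: growth inhibition of NB69 cells, determined by a cell viability assay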
Description: SANGER: Inhibition of human NB69 cell growth in a cell viability assay.

NB13 = format: functional, cell-based, Homo sapiens; details: Homo sapiens, NB13;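 note: cell viability readout measuring growth inhibition of human NB13 cells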
Description: SANGER: Inhibition of human NB13 cell growth in a cell viability assay.

NCI-N87 = format: functional, cell-based; details: Homo sapiens;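 note: growth inhibition of human NCI-N87 cells, read out with a cell viability assay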
Description: SANGER: Inhibition of human NCI-N87 cell growth in a cell viability assay.

HCC2218 = format: functional, cell-based, Homo sapiens; details: Homo sapiens, HCC2218;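 note: cell viability assay read-out, with IC50 given as the concentration that inhibits growth of the cell line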
Description: SANGER: Inhibition of human HCC2218 cell growth in a cell viability assay.

MC116 = format: functional, cell-based, Homo sapiens; details: Homo sapiens, MC116;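 note: growth inhibition of MC116 cells, read out with a cell viability assay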
Description: SANGER: Inhibition of human MC116 cell growth in a cell viability assay.

SNU-C2B = format: functional, cell-based; details: Homo sapiens;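 note: cell viability readout used to measure compound-driven suppression of SNU-C2B cell proliferation, IC50 marking half-maximal growth inhibition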
Description: SANGER: Inhibition of human SNU-C2B cell growth in a cell viability assay.

SJSA-1 = format: functional, cell-based, Homo sapiens; details: Homo sapiens, SJSA-1;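 note: growth inhibition of human SJSA-1 cells, read out through a cell viability measurement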
Description: SANGER: Inhibition of human SJSA-1 cell growth in a cell viability assay.

HCE-4 = format: functional, cell-based; details: Homo sapiens;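 note: cell viability assay measuring inhibition of growth in the human HCE-4 cell line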
Description: SANGER: Inhibition of human HCE-4 cell growth in a cell viability assay.

NCI-H1155 = format: functional, cell-based, Homo sapiens; details: Homo sapiens, NCI-H1155;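 note: cell growth inhibition measured by a viability assay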
Description: SANGER: Inhibition of human NCI-H1155 cell growth in a cell viability assay.

KP-N-YS = format: functional, cell-based, Homo sapiens; details: Homo sapiens, KP-N-YS;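 note: cell viability assay measuring inhibition of cell line growth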
Description: SANGER: Inhibition of human KP-N-YS cell growth in a cell viability assay.

SK-N-FI = format: functional, cell-based, Homo sapiens; details: Homo sapiens, SK-N-FI;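 note: cell viability assay measuring growth inhibition of human SK-N-FI cells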
Description: SANGER: Inhibition of human SK-N-FI cell growth in a cell viability assay.

JAR = format: functional, cell-based, Homo sapiens; details: Homo sapiens, JAR;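 note: growth inhibition of human JAR cells determined with a cell viability assay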
Description: SANGER: Inhibition of human JAR cell growth in a cell viability assay.

NCI-H720 = format: functional, cell-based, Homo sapiens; details: Homo sapiens, NCI-H720;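 note: growth inhibition of human NCI-H720 cells determined by a cell viability assay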
Description: SANGER: Inhibition of human NCI-H720 cell growth in a cell viability assay.

CGTH-W-1 = format: functional, cell-based, Homo sapiens; details: Homo sapiens, CGTH-W-1;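 note: growth inhibition of human CGTH-W-1 cells measured by cell viability assay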
Description: SANGER: Inhibition of human CGTH-W-1 cell growth in a cell viability assay.

MZ2-MEL = format: functional, cell-based, Homo sapiens; details: Homo sapiens, MZ2-MEL;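 note: growth inhibition of MZ2-MEL cells read out with a cell viability assay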
Description: SANGER: Inhibition of human MZ2-MEL cell growth in a cell viability assay.

NCI-H82 = format: functional, cell-based, Homo sapiens; details: Homo sapiens, NCI-H82;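 note: growth inhibition of NCI-H82 cells, measured with a cell viability readout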
Description: SANGER: Inhibition of human NCI-H82 cell growth in a cell viability assay.

EM-2 = format: functional, cell-based, Homo sapiens; details: Homo sapiens, EM-2;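 note: growth inhibition of EM-2 cells, read out with a cell viability assay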
Description: SANGER: Inhibition of human EM-2 cell growth in a cell viability assay.

SW982 = format: functional, cell-based; details: Homo sapiens;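 note: growth inhibition of SW982 cells, read out with a cell viability assay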
Description: SANGER: Inhibition of human SW982 cell growth in a cell viability assay.

ES3 = format: functional, cell-based, Homo sapiens; details: Homo sapiens, ES3;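 note: growth inhibition of ES3 cells, read out with a cell viability assay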
Description: SANGER: Inhibition of human ES3 cell growth in a cell viability assay.

A498 = format: functional, cell-based, Homo sapiens; details: Homo sapiens, A498;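 note: growth inhibition of human A498 cells, read out with a cell viability assay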
Description: SANGER: Inhibition of human A498 cell growth in a cell viability assay.

NCI-H209 = format: functional, cell-based, Homo sapiens; details: Homo sapiens, NCI-H209;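 note: growth inhibition of human NCI-H209 cells, measured by a cell viability assay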
Description: SANGER: Inhibition of human NCI-H209 cell growth in a cell viability assay.

UACC-257 = format: functional, cell-based, Homo sapiens; details: Homo sapiens, UACC-257
Description: SANGER: Inhibition of human UACC-257 cell growth in a cell viability assay.

HDLM-2 = format: functional, cell-based, Homo sapiens; details: Homo sapiens, HDLM-2;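 note: cell viability assay measuring suppression of HDLM-2 proliferation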
Description: SANGER: Inhibition of human HDLM-2 cell growth in a cell viability assay.

NB6 = format: functional, cell-based, Homo sapiens; details: Homo sapiens, NB6
Description: SANGER: Inhibition of human NB6 cell growth in a cell viability assay.

EW-1 = format: functional, cell-based, Homo sapiens; details: Homo sapiens, EW-1;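 note: growth inhibition of the human EW-1 cell line, read out by a cell viability assay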
Description: SANGER: Inhibition of human EW-1 cell growth in a cell viability assay.

C2BBe1 = format: functional, cell-based, Homo sapiens; details: Homo sapiens, C2BBe1;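 note: growth inhibition of C2BBe1 cells, read out through a viability assay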
Description: SANGER: Inhibition of human C2BBe1 cell growth in a cell viability assay.

SW 954 = format: functional, cell-based, Homo sapiens; details: Homo sapiens, SW 954;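 note: growth inhibition of SW954 human cancer cells, read out as cell viability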
Description: SANGER: Inhibition of human SW954 cell growth in a cell viability assay.

BB30-HNC = format: functional, cell-based, Homo sapiens; details: Homo sapiens, BB30-HNC;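 note: growth inhibition of the cultured cell line, read out by a cell viability assay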
Description: SANGER: Inhibition of human BB30-HNC cell growth in a cell viability assay.

SK-NEP-1 = format: functional, cell-based, Homo sapiens; details: Homo sapiens, SK-NEP-1;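 note: growth inhibition of human SK-NEP-1 cells, read out by a cell viability assay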
Description: SANGER: Inhibition of human SK-NEP-1 cell growth in a cell viability assay.

MV4-11 = format: functional, cell-based, Homo sapiens, MV-4-11; details: Homo sapiens, MV4-11;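 note: cell viability readout measuring growth inhibition of human MV-4-11 cells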
Description: SANGER: Inhibition of human MV-4-11 cell growth in a cell viability assay.

IST-MES1 = format: functional, cell-based, Homo sapiens; details: Homo sapiens, IST-MES1;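 note: growth inhibition of IST-MES1 cells, measured with a cell viability assay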
Description: SANGER: Inhibition of human IST-MES1 cell growth in a cell viability assay.

COc1cc(N2CCC(N3CCN(C)CC3)CC2)ccc1Nc1ncc(Cl)c(Nc2ccccc2S(=O)(=O)C(C)C)n1 [TAE-684]
IC50 (GCIY): 0.955 µM
IC50 (DMS-114): > 2 µM
IC50 (CW-2): > 2 µM
IC50 (DU-4475): 1.46 µM
IC50 (L-428): > 2 µM
IC50 (KNS-42): > 2 µM
IC50 (EW-3): > 2 µM
IC50 (BE-13): > 2 µM
IC50 (NEC8): 0.413 µM
IC50 (DOHH-2): 0.312 µM
IC50 (K5): 1.06 µM
IC50 (A388): > 2 µM
IC50 (A253 cell line): > 2 µM
IC50 (U-87 MG): > 2 µM
IC50 (TGBC24TKB): 0.302 µM
IC50 (BB65-RCC): > 2 µM
IC50 (SNU-5): > 2 µM
IC50 (TE-10): 0.715 µM
IC50 (NCI-H1355): 0.552 µM
IC50 (MSTO-211H): > 2 µM
IC50 (NB69): 0.318 µM
IC50 (NB13): 1.37 µM
IC50 (NCI-N87): > 2 µM
IC50 (HCC2218): > 2 µM
IC50 (MC116): > 2 µM
IC50 (SNU-C2B): > 2 µM
IC50 (SJSA-1): 0.637 µM
IC50 (HCE-4): 1.61 µM
IC50 (NCI-H1155): > 2 µM
IC50 (KP-N-YS): > 2 µM
IC50 (SK-N-FI): > 2 µM
IC50 (JAR): > 2 µM
IC50 (NCI-H720): 1.36 µM
IC50 (CGTH-W-1): > 2 µM
IC50 (MZ2-MEL): > 2 µM
IC50 (NCI-H82): > 2 µM
IC50 (EM-2): 1.85 µM
IC50 (SW982): 0.165 µM
IC50 (ES3): > 2 µM
IC50 (A498): > 2 µM
IC50 (NCI-H209): > 2 µM
IC50 (UACC-257): > 2 µM
IC50 (HDLM-2): > 2 µM
IC50 (NB6): > 2 µM
IC50 (EW-1): 0.103 µM
IC50 (C2BBe1): 1.29 µM
IC50 (SW 954): 1.2 µM
IC50 (BB30-HNC): 1.13 µM
IC50 (SK-NEP-1): 0.235 µM
IC50 (MV4-11): 0.394 µM
IC50 (IST-MES1): 0.988 µM

O=S(=O)(O)c1ccc2cc(/N=N/c3cc(S(=O)(=O)O)c4cccnc4c3O)ccc2c1
IC50 (GCIY): > 16 µM
IC50 (DMS-114): > 16 µM
IC50 (CW-2): > 16 µM
IC50 (DU-4475): > 16 µM
IC50 (L-428): > 16 µM
IC50 (KNS-42): > 16 µM
IC50 (EW-3): > 16 µM
IC50 (BE-13): > 16 µM
IC50 (NEC8): > 16 µM
IC50 (DOHH-2): > 16 µM
IC50 (K5): > 16 µM
IC50 (A388): > 16 µM
IC50 (A253 cell line): > 16 µM
IC50 (U-87 MG): > 16 µM
IC50 (TGBC24TKB): > 16 µM
IC50 (BB65-RCC): > 16 µM
IC50 (SNU-5): > 16 µM
IC50 (TE-10): > 16 µM
IC50 (NCI-H1355): > 16 µM
IC50 (MSTO-211H): > 16 µM
IC50 (NB69): > 16 µM
IC50 (NB13): > 16 µM
IC50 (NCI-N87): > 16 µM
IC50 (HCC2218): > 16 µM
IC50 (MC116): > 16 µM
IC50 (SNU-C2B): > 16 µM
IC50 (SJSA-1): > 16 µM
IC50 (HCE-4): > 16 µM
IC50 (NCI-H1155): > 16 µM
IC50 (KP-N-YS): > 16 µM
IC50 (SK-N-FI): > 16 µM
IC50 (JAR): > 16 µM
IC50 (NCI-H720): > 16 µM
IC50 (CGTH-W-1): > 16 µM
IC50 (MZ2-MEL): > 16 µM
IC50 (NCI-H82): > 16 µM
IC50 (EM-2): > 16 µM
IC50 (SW982): > 16 µM
IC50 (ES3): > 16 µM
IC50 (A498): > 16 µM
IC50 (NCI-H209): > 16 µM
IC50 (UACC-257): > 16 µM
IC50 (HDLM-2): > 16 µM
IC50 (NB6): 13.7 µM
IC50 (EW-1): > 16 µM
IC50 (C2BBe1): > 16 µM
IC50 (SW 954): > 16 µM
IC50 (BB30-HNC): > 16 µM
IC50 (SK-NEP-1): > 16 µM
IC50 (MV4-11): > 16 µM
IC50 (IST-MES1): > 16 µM

C[C@@H](Oc1cc(-c2cnn(C3CCNCC3)c2)cnc1N)c1c(Cl)ccc(F)c1Cl [CRIZOTINIB]
IC50 (GCIY): > 2 µM
IC50 (DMS-114): > 2 µM
IC50 (CW-2): > 2 µM
IC50 (DU-4475): > 2 µM
IC50 (L-428): > 2 µM
IC50 (KNS-42): > 2 µM
IC50 (EW-3): > 2 µM
IC50 (BE-13): > 2 µM
IC50 (NEC8): > 2 µM
IC50 (DOHH-2): > 2 µM
IC50 (K5): > 2 µM
IC50 (A388): > 2 µM
IC50 (A253 cell line): > 2 µM
IC50 (U-87 MG): > 2 µM
IC50 (TGBC24TKB): > 2 µM
IC50 (BB65-RCC): > 2 µM
IC50 (SNU-5): 0.106 µM
IC50 (TE-10): > 2 µM
IC50 (NCI-H1355): > 2 µM
IC50 (MSTO-211H): > 2 µM
IC50 (NB69): > 2 µM
IC50 (NB13): > 2 µM
IC50 (NCI-N87): > 2 µM
IC50 (HCC2218): > 2 µM
IC50 (MC116): > 2 µM
IC50 (SNU-C2B): > 2 µM
IC50 (SJSA-1): > 2 µM
IC50 (HCE-4): > 2 µM
IC50 (NCI-H1155): > 2 µM
IC50 (KP-N-YS): > 2 µM
IC50 (SK-N-FI): > 2 µM
IC50 (JAR): > 2 µM
IC50 (NCI-H720): > 2 µM
IC50 (CGTH-W-1): > 2 µM
IC50 (MZ2-MEL): > 2 µM
IC50 (NCI-H82): > 2 µM
IC50 (EM-2): 0.601 µM
IC50 (SW982): > 2 µM
IC50 (ES3): > 2 µM
IC50 (A498): > 2 µM
IC50 (NCI-H209): > 2 µM
IC50 (UACC-257): > 2 µM
IC50 (HDLM-2): > 2 µM
IC50 (NB6): > 2 µM
IC50 (EW-1): > 2 µM
IC50 (C2BBe1): > 2 µM
IC50 (SW 954): > 2 µM
IC50 (BB30-HNC): > 2 µM
IC50 (SK-NEP-1): > 2 µM
IC50 (MV4-11): > 2 µM
IC50 (IST-MES1): > 2 µM

OC[C@H](Cc1ccccc1)Nc1nc(Oc2ccc3c(c2)CCC3)nc2c1ncn2Cc1ccc(-c2ccccc2)cc1
IC50 (GCIY): > 10.2 µM
IC50 (DMS-114): > 10.2 µM
IC50 (CW-2): > 10.2 µM
IC50 (DU-4475): 1.63 µM
IC50 (L-428): > 10.2 µM
IC50 (KNS-42): > 10.2 µM
IC50 (EW-3): > 10.2 µM
IC50 (BE-13): > 10.2 µM
IC50 (NEC8): > 10.2 µM
IC50 (DOHH-2): > 10.2 µM
IC50 (K5): > 10.2 µM
IC50 (A388): > 10.2 µM
IC50 (A253 cell line): > 10.2 µM
IC50 (U-87 MG): > 10.2 µM
IC50 (TGBC24TKB): > 10.2 µM
IC50 (BB65-RCC): 7.84 µM
IC50 (SNU-5): > 10.2 µM
IC50 (TE-10): 7.51 µM
IC50 (NCI-H1355): > 10.2 µM
IC50 (MSTO-211H): > 10.2 µM
IC50 (NB69): > 10.2 µM
IC50 (NB13): 8.09 µM
IC50 (NCI-N87): > 10.2 µM
IC50 (HCC2218): > 10.2 µM
IC50 (MC116): > 10.2 µM
IC50 (SNU-C2B): > 10.2 µM
IC50 (SJSA-1): 2.56 µM
IC50 (HCE-4): 7.47 µM
IC50 (NCI-H1155): > 10.2 µM
IC50 (KP-N-YS): 7.6 µM
IC50 (SK-N-FI): > 10.2 µM
IC50 (JAR): > 10.2 µM
IC50 (NCI-H720): > 10.2 µM
IC50 (CGTH-W-1): > 10.2 µM
IC50 (MZ2-MEL): 4.42 µM
IC50 (NCI-H82): > 10.2 µM
IC50 (EM-2): > 10.2 µM
IC50 (SW982): > 10.2 µM
IC50 (ES3): 6.65 µM
IC50 (A498): > 10.2 µM
IC50 (NCI-H209): > 10.2 µM
IC50 (UACC-257): > 10.2 µM
IC50 (HDLM-2): > 10.2 µM
IC50 (NB6): > 10.2 µM
IC50 (EW-1): > 10.2 µM
IC50 (C2BBe1): > 10.2 µM
IC50 (SW 954): > 10.2 µM
IC50 (BB30-HNC): 3.92 µM
IC50 (SK-NEP-1): > 10.2 µM
IC50 (MV4-11): 5.51 µM
IC50 (IST-MES1): > 10.2 µM
